Measured values from patent US5494909A, “Substituted oxazinoisoquinoline derivatives, pharmaceutical compositions containing them and process for preparing same” (priority 1991, dated 1996).

How the values were obtained:
[1] = tested on: genetically hypertensive rats (SHR); assay: The hypobaric hypoxia test; assay type: in vivo, rat (genetically hypertensive; conditions: Rattus norvegicus, 1 h; male SHR rats; 22.66 kPa; one hour after administration; protected = survival time 30% longer than control
Text: The antihypoxic effect of the target compounds was studied on genetically hypertensive rats (SHR), which are particularly sensitive to hypoxic insults. Male rats weighing 210 to 230 g each were used for these experiments.
The hypobaric hypoxia test
The experimental animals were placed in pairs in a desiccator of 6 liters volume one hour after administration of the compound to be tested. The pressure in the desiccator was decreased to 22.66 kPa (170 mmHg) during 20 seconds. The time elapsing from this point until the last respiratory movement was measured. An animal was considered to be protected when its survival time was by 30% longer in comparison with the control group.

[2] = tested on: Potassium-stimulated Ca uptake, synaptosomes prepared from rat brain; assay: Inhibition of potassium-stimulated calcium uptake into rat brain synaptosomes; conditions: for IC50: read-out: Inhibition of Potassium-stimulated Ca uptake IC50, 60 mmoles/l KCl, rat synaptosomes, pH 7.4, 37° C., 20 seconds
Text: (§1) The calcium uptake-inhibitory effect of the compounds of the formula (I) according to the invention was studied on synaptosomes prepared from rat brain by using a method described in J. Neurochem.
(§2) Wistar rats weighing 180 to 200 g were decapitated and the brains were collected in ice-cold physiological saline, the cortex was removed and purified from the white matter. The tissue was homogenized by a glass-teflon potter in 10 volumes of a saccharose solution of 0.32 moles/liter concentration. The homogenate was centrifuged at 1000×g in a Janetzki K-70 centrifuge at 4° C. for 10 minutes, the supernatant was centrifuged at 12000×g in a Hitachi CR-26H centrifuge at 4° C. for 20 minutes. The sediment was suspended in a saccharose solution of 0.32 moles/liter concentration, then the protein content of the preparation was adjusted to 20 mg/ml.
Components of the solution used for incubation were as follows:
Incubation solution was saturated with oxygen containing 5% by volume of carbon dioxide until reaching a pH value of 7.4. The test compounds and the synaptosome preparation in an amount corresponding to 1 mg of protein were added into the incubation solution. The final volume of incubation was 1 ml. The samples were pre-incubated at 37° C. for 20 minutes.
The calcium uptake was initiated by addition of a 45CACl2 solution of 2.8 kBq (75 nCi) activity. Potassium chloride was used in a concentration of 60 mmoles/l for the investigation of potassium-stimulated calcium uptake; sodium chloride was added in the same concentration to the control samples.
The incubation time was 20 seconds. The reaction stopped by adding 5 ml of a stopping solution containing 120 mmoles/l of sodium chloride, 5 mmoles/l of potassium chloride, 5 mmoles/l of EGTA [ethylene glycol bis(β-aminoethyl)ether-N,N, N',N'-tetraacetic acid]and 20 mmoles/l of TRIS (pH 7.4).

[3] = tested on: excitatory amino acid receptor-dependent calcium channels; conditions: literature; cited from earlier work
[4] = tested on: Veratrine-stimulated Ca uptake, synaptosomes prepared from rat brain; assay type: biochemical, rat (Wistar)
Text: as §1, §2
Components of the solution used for incubation were as follows: […]
After placing the filter disks in glass cuvets, 10 ml of scintillation cocktail [containing 1000 ml of toluene, 400 ml of abs. ethanol, 10 ml of dioxane, 6 g of 2,5-diphenyloxazole and 0.15 g of 1,4-bis(5-phenyl-2-oxazolyl)benzene] and the radioactivity of the samples was measured by using an 1219 Rackbeta type liquid scintillation spectrophotometer (product of LKB Wallace Company).

[5] = Oral toxicity (LD50); conditions: in vivo
[6] = qualitative / comparison with reference drug

Row | SMILES | ED50 [1] [mg/kg] | IC50 [2] [µM] | effect on excitatory amino acid receptor-dependent calcium channels (in words) [3] | veratrine-induced calcium uptake inhibitory effect (in words) [4, 6] | IC50 ([4]; veratrine 20 μmoles/l, rat synaptosomes, pH 7.4, 37° C., 20 seconds, read-out: Inhibition of Veratrine-stimulated Ca uptake IC50) [µM] | LD50 [5] [mg/kg] | potassium-induced calcium uptake inhibitory effect (in words) [2, 6]
1 | COCCOC(=O)C1=C(C)NC(C)=C(C(=O)OC(C)C)C1c1cccc([N+](=O)[O-])c1 (stereo not shown) [nimodipine, isopropyl 2methoxyethyl 1,4dihydro-2,6-dimethyl-4-(mnitrophenyl)-3,5-pyridinedicarboxylate, reference compound] | 8 | 208 |  |  |  |  | 
2 | C[C@]12N[C@H](Cc3ccccc31)c1ccccc12 [MK-801, (+)-5-methyl-10,11-dihydro-5H-dibenzo[a,d]cyclohepten-5,10-imine] |  |  | inhibit the excitatory amino acid receptor-dependent calcium channels |  |  |  | 
3 | COc1cc2c(cc1OCc1ccccc1)CCN1C(=Nc3ccc(C)cc3)OCCC21.Cl (stereo not shown) [compound 1507136, 9-benzyloxy-10-methoxy-4-(p-tolylimino)-1,6,7,11b-tetrahydro-2H,4H-1,3-oxazino[4,3-a]isoquinoline hydrochloride] | 8 | 23.9 |  | to a higher degree than flunarizine did | 0.29 | 1400 | exceeds that of cinnarizine
4 | Fc1ccc(C(c2ccc(F)cc2)N2CCN(C/C=C/c3ccccc3)CC2)cc1 [flunarizine] | 50 |  |  |  |  |  | 
